Measured values taken from ChEMBL document CHEMBL6127128, “Discovery of the First-in-Class Dual-Target ROCK/HDAC Inhibitor with Potent Antitumor Efficacy in Vivo That Trigger Antitumor Immunity” (J Med Chem, 2024).
Active and inactive are the calls of the source. The rule behind the calls is not given here.

Assays:
4T1 [1] = assay: Antitumor immunity against mouse 4T1 cells implanted in Balb/c mouse assessed as increase in CD4+ T cells in tumor tissue at 50 mg/kg, po administered daily for 15 days by flow cytometry; assay type: functional, organism-based; conditions: time 15.0 day
4T1 [2] = assay: Antitumor immunity against mouse 4T1 cells implanted in Balb/c mouse assessed as increase in CD3+ T cells in tumor tissue at 50 mg/kg, po administered daily for 15 days by flow cytometry; assay type: functional, organism-based; conditions: time 15.0 day
4T1 [3] = assay: Antitumor immunity against mouse 4T1 cells implanted in Balb/c mouse assessed as increase in CD8+ T cells in tumor tissue at 50 mg/kg, po administered daily for 15 days by flow cytometry; assay type: functional, organism-based; conditions: time 15.0 day
MDA-MB-231 = assay: Cytotoxicity against human MDA-MB-231 cells assessed as reduction in cell viability incubated for 72 hrs by SRB assay; assay type: functional, cell-based; conditions: MDA-MB-231, 72 h
[4] = molecular target: Rho-associated protein kinase 2 (Homo sapiens, UniProt O75116); assay: Inhibition of N-terminal GST-tagged human recombinant wild type ROCK2 (1 to 553 residues) expressed in baculovirus-infected Sf21 cells by HTRF KinEASE assay
Chain of Rho-associated protein kinase 2 (O75116 whole entry, the tested form may be a part): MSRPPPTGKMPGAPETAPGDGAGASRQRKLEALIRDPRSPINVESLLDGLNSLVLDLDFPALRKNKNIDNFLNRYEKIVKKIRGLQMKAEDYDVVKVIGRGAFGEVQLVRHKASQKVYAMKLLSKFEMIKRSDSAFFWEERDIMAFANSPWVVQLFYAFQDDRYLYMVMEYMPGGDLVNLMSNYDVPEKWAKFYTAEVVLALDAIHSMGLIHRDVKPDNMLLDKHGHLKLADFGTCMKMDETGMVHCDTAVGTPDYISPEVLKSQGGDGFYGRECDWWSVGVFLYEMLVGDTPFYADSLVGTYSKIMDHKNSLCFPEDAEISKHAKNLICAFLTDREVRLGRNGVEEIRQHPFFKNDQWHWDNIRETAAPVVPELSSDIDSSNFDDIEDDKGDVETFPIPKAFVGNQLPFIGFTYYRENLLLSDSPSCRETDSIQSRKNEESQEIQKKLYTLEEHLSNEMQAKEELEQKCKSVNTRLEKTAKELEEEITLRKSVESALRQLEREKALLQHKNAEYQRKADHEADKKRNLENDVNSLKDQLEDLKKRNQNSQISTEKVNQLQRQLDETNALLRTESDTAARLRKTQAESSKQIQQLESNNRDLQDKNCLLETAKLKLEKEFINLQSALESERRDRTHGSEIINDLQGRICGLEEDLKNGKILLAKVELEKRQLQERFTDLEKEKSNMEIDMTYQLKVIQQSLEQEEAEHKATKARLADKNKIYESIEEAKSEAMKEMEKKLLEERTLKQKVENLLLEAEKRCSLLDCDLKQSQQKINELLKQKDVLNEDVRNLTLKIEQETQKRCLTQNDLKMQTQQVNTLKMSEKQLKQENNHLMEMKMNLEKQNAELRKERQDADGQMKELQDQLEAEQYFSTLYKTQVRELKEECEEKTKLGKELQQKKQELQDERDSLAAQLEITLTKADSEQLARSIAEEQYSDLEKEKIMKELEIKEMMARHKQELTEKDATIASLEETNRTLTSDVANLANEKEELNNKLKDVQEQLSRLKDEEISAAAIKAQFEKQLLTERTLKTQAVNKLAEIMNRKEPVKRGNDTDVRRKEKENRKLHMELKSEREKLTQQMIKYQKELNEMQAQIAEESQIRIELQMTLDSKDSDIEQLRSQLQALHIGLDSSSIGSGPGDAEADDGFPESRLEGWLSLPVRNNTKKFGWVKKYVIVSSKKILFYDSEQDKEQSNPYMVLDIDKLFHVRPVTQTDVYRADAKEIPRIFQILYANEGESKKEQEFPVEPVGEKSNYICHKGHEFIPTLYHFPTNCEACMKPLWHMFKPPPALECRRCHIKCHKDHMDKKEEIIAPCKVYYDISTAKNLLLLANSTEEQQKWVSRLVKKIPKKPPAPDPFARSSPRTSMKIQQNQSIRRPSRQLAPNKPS

[5] = molecular target: Rho-associated protein kinase 1 (Homo sapiens, UniProt Q13464); assay: Inhibition of N-terminal GST-tagged human recombinant ROCK1 (17 to 535 residues) expressed in baculovirus-infected Sf9 cells by HTRF KinEASE assay
4T1 [6] = assay: Cytotoxicity against mouse 4T1 cells assessed as reduction in cell viability; assay type: functional, cell-based

Row | IC50 [4] [µM] | SMILES | IC50 (MDA-MB-231) [µM] | other results
1 |  | O=C(CCCCCCC(=O)Nc1ccccc1)NO [VORINOSTAT] | 0.66 | Activity (4T1 [1]): Active; Activity (4T1 [2]): Active; Activity (4T1 [3]): Active
2 |  | O=C(CCCCCCNC(=O)c1cc2ccc(-c3cn[nH]c3)cc2s1)NO | 1.26 | 
3 |  | O=C(CCCCCCCNC(=O)c1cc2c(-c3ccncc3)cccc2s1)NO | > 10 | 
4 | > 1 | COc1cccc(CNC(=O)c2cc3cc(-c4cccc5cnccc45)ccc3s2)c1 |  | 
5 |  | O=C(CCCCCCNC(=O)c1cc2cccc(-c3ccncc3)c2s1)NO | 1.54 | 
6 | > 1 | COc1cccc(CNC(=O)c2cc3c(-c4ccncc4)cccc3s2)c1 |  | 
7 |  | O=C(CCCCCCCNC(=O)c1cc2c(-c3cn[nH]c3)cccc2s1)NO | > 10 | 
8 | 0.00675 | COc1cccc(CNC(=O)c2cc3cc(-c4cn[nH]c4)ccc3s2)c1 |  | inhibition (active/inactive call) [5]: Active
9 |  | O=C(CCCCCCCNC(=O)c1cc2cccc(-c3ccncc3)c2s1)NO | > 10 | 
10 |  | O=C(CCCCCNC(=O)c1cc2c(-c3cn[nH]c3)cccc2s1)NO | 3.21 | 
11 | > 1 | COc1cccc(CNC(=O)c2cc3cccc(-c4cccc5cnccc45)c3s2)c1 |  | 
12 |  | O=C(CCCCCNC(=O)c1cc2cc(-c3ccncc3)ccc2s1)NO | > 10 | 
13 | > 1 | COc1cccc(CNC(=O)c2cc3cccc(-c4ccc5[nH]ncc5c4)c3s2)c1 |  | 
14 |  | O=C(CCCCCNC(=O)c1cc2c(-c3ccncc3)cccc2s1)NO | > 10 | 
15 | > 1 | O=C(CCCCCCNC(=O)c1cc2cc(-c3ccncc3)ccc2s1)NO | 0.13 | IC50 [5]: > 1 µM
16 |  | C[C@@H](N)[C@H]1CC[C@H](C(=O)Nc2ccncc2)CC1 [Y-27632] | > 10 | IC50 (4T1 [6]): > 10 µM
17 | 0.225 | COc1cccc(CNC(=O)c2cc3cccc(-c4cn[nH]c4)c3s2)c1 |  | inhibition (active/inactive call) [5]: Active
18 | 0.296 | COc1cccc(CNC(=O)c2cc3ccc(-c4ccncc4)cc3s2)c1 |  | inhibition (active/inactive call) [5]: Active
19 |  | O=C(CCCCCNC(=O)c1cc2cccc(-c3ccncc3)c2s1)NO | > 10 | 
20 | 8.89 | CN[C@@H]1C[C@H](c2ccc3c(c2O)C(=O)c2c(C)sc(C(C)=O)c2C3=O)O[C@H](C)[C@H]1O |  | 
21 | > 1 | COc1cccc(CNC(=O)c2cc3ccc(-c4ccc5[nH]ncc5c4)cc3s2)c1 |  | 
22 |  | O=C(CCCCCCNC(=O)c1cc2c(-c3cn[nH]c3)cccc2s1)NO | > 10 | 

Row | IC50 [4] [µM] | SMILES | IC50 (MDA-MB-231) [µM] | other results
23 | > 1 | COc1cccc(CNC(=O)c2cc3cc(-c4ccncc4)ccc3s2)c1 |  | 
24 | > 1 | COc1cccc(CNC(=O)c2cc3c(-c4ccc5[nH]ncc5c4)cccc3s2)c1 |  | 
25 | > 1 | COc1cccc(CNC(=O)c2cc3c(-c4cn[nH]c4)cccc3s2)c1 |  | 
26 |  | O=C(CCCCCNC(=O)c1cc2cc(-c3cn[nH]c3)ccc2s1)NO | > 10 | 
27 |  | O=C(CCCCCCCNC(=O)c1cc2ccc(-c3cn[nH]c3)cc2s1)NO | 0.76 | 
28 | > 1 | O=C(CCCCCCCNC(=O)c1cc2cc(-c3ccncc3)ccc2s1)NO | 0.42 | IC50 [5]: > 1 µM
29 |  | O=C(CCCCCCNC(=O)c1cc2c(-c3ccncc3)cccc2s1)NO | 2.9 | 
30 | > 1 | COc1cccc(CNC(=O)c2cc3cccc(-c4ccncc4)c3s2)c1 |  | 
31 |  | O=C(CCCCCCNC(=O)c1cc2cccc(-c3cn[nH]c3)c2s1)NO | 9.05 | 
32 |  | O=C(CCCCCCCNC(=O)c1cc2cccc(-c3cn[nH]c3)c2s1)NO | > 10 | 
33 | > 1 | COc1cccc(CNC(=O)c2cc3cc(-c4ccc5[nH]ncc5c4)ccc3s2)c1 |  | 
34 | > 1 | O=C(CCCCCCCNC(=O)c1cc2ccc(-c3ccncc3)cc2s1)NO | 0.46 | IC50 [5]: > 1 µM
35 | > 1 | COc1cccc(CNC(=O)c2cc3c(-c4cccc5cnccc45)cccc3s2)c1 |  | 
36 | < 0.001 | COc1cccc(CN(CCN(C)C)C(=O)c2nc3ccc(-c4cn[nH]c4)cc3s2)c1 |  | 
37 |  | O=C(CCCCCNC(=O)c1cc2ccc(-c3ccncc3)cc2s1)NO | > 10 | 
38 | > 1 | COc1cccc(CNC(=O)c2cc3ccc(-c4cccc5cnccc45)cc3s2)c1 |  | 
39 |  | O=C(CCCCCCNC(=O)c1cc2ccc(-c3ccncc3)cc2s1)NO | 0.95 | 
40 | 0.00794 | COc1cccc(CNC(=O)c2cc3ccc(-c4cn[nH]c4)cc3s2)c1 |  | inhibition (active/inactive call) [5]: Active
41 |  | O=C(CCCCCNC(=O)c1cc2ccc(-c3cn[nH]c3)cc2s1)NO | > 10 | 
42 |  | O=C(CCCCCCCNC(=O)c1cc2cc(-c3cn[nH]c3)ccc2s1)NO | 6.42 | 
43 |  | O=C(CCCCCNC(=O)c1cc2cccc(-c3cn[nH]c3)c2s1)NO | > 10 | 
